The text below walks through data of PMC7179202 (Molecules, 2020).

Each structure is given as a SMILES string.

In general, IC50 refers to the point on the concentration scale where inhibition reaches its midpoint.

In data set [1] the test system is non-malignant human lung fibroblasts (HLF). The data set is described as follows: MTT cytotoxicity assay, HLF. To be noted: Fibroblast, read-out: IC50 HLF. Background: Tetrazolium assays rely on reduction of a dye to a coloured formazan, in cell work by metabolically active cells.
Procedure: (§1) In addition, to assess the amount of prodrug activation in these models, the cytotoxicity of the activated drugs after (cell-free) pre-incubation with H2O2 was tested for comparison.
(§2) All samples were dissolved in DMSO and diluted to the indicated concentrations (final concentrations of DMSO were below 1%). […] Viability was measured using 3-(4,5-dimethylthiazol-2-yl)-2,5-diphenyltetrazolium bromide (MTT) based vitality assay (EZ4U; Biomedica, Vienna, Austria) following the manufacturer’s recommendations.
The subject of data set [2] is RUMH (c-MET-overexpressing renal cell carcinoma). Kind of data set: MTT cytotoxicity assay, RUMH. The conditions noted are these: for IC50: Homo sapiens, read-out: IC50 RUMH; for Ratio of IC50 ±H2O2, RUMH: IC50 without / with H2O2 pre-incubation.
Procedure: as §1, §2
Data set [3] concerns H1993 (c-MET-dependent non-small cell lung cancer). The data set is described as follows: MTT cytotoxicity assay, H1993. To be noted: for IC50: Homo sapiens, NCI-H1993, read-out: IC50 H1993; for Ratio of IC50 ±H2O2, H1993: IC50 without / with H2O2 pre-incubation.
Procedure: as §1, §2
Data set [4] concerns H2228 (ALK-dependent non-small cell lung cancer). Kind of data set: MTT cytotoxicity assay, H2228. The conditions noted are these: for IC50: Homo sapiens, NCI-H2228, read-out: IC50 H2228; for Ratio of IC50 ±H2O2, H2228: IC50 without / with H2O2 pre-incubation.
Procedure: as §1, §2
Data set [5] is described as follows: H2O2 activation assay (HPLC). The conditions noted are these: for Release of free crizotinib / Product of activation with H2O2: ten equivalents H2O2, phosphate buffer 50 mM pH 7.4, 37 °C; for Product of activation with H2O2: 1 h, HPLC-MS. As for the experimental part: Therefore, the activation process was verified by incubation with ten equivalents of H2O2 in phosphate buffer (50 mM, pH 7.4) at 37 °C. […] In a complex biological environment, this quinone methide usually reacts with other nucleophiles; consequently, this side reaction can be neglected.
Additionally, a H2O2 solution (1 mM) in PB7.4 was prepared. The activation was started by addition of 5 µL of drug solution and 25 µL of H2O2 to 70 µL of PB7.4 and incubated at 37 °C for 1 h. At time point 0 and every 8 min, the sample were measured via HPLC. All measurements were performed on a ThermoFisher Ultimate 3000RS system using a Water’s Acquity BEH C18 column (3 × 50 mm, 1.7 µm) and a 5%–95% gradient of acetonitrile (+0.1% TFA) in water (+0.1% TFA). […] The results are visualized in Figure S6 for prodrug A and in Figure S7 for prodrug B.

The target in the next data set is ALK (Homo sapiens, UniProt Q9UM73). Kind of data set: Cell-free kinase inhibition assay (SelectScreen, Z'-LYTE), ALK. The conditions noted are these: for Prodrug factor ALK = IC50 (prodrug)/IC50 (crizotinib): cell-free kinase assay.
The target in another data set is c-MET (Homo sapiens, UniProt P08581). The data set is described as follows: Cell-free kinase inhibition assay (SelectScreen, Z'-LYTE), c-MET. The conditions noted are these: for Prodrug factor c-MET = IC50 (prodrug)/IC50 (crizotinib): cell-free kinase assay.
A short description of data set [6]: Stability in R10 medium and fetal calf serum (HPLC-MS). To be noted: R10 medium and pure FCS, 37 °C, after 72 h.
Procedure: After precipitation of the macromolecules with acetonitrile, the supernatant was investigated via HPLC-MS measurements (Figure 4).
The 10 mM stock solutions of the drugs were prepared in DMSO and diluted 1:10 with PB7.4. […] At different time points, macromolecules were precipitated by addition of 40 µL of acetonitrile, vortexed and centrifuged for 10 min at 6000 rpm. The supernatant was extracted and investigated via HPLC-MS measurements.
Details of data set [7]: method as in PMID 28256516. To be noted: approved orally applied drug, SwissADME prediction; cited from earlier work.

Chain of ALK (Q9UM73 19-1620): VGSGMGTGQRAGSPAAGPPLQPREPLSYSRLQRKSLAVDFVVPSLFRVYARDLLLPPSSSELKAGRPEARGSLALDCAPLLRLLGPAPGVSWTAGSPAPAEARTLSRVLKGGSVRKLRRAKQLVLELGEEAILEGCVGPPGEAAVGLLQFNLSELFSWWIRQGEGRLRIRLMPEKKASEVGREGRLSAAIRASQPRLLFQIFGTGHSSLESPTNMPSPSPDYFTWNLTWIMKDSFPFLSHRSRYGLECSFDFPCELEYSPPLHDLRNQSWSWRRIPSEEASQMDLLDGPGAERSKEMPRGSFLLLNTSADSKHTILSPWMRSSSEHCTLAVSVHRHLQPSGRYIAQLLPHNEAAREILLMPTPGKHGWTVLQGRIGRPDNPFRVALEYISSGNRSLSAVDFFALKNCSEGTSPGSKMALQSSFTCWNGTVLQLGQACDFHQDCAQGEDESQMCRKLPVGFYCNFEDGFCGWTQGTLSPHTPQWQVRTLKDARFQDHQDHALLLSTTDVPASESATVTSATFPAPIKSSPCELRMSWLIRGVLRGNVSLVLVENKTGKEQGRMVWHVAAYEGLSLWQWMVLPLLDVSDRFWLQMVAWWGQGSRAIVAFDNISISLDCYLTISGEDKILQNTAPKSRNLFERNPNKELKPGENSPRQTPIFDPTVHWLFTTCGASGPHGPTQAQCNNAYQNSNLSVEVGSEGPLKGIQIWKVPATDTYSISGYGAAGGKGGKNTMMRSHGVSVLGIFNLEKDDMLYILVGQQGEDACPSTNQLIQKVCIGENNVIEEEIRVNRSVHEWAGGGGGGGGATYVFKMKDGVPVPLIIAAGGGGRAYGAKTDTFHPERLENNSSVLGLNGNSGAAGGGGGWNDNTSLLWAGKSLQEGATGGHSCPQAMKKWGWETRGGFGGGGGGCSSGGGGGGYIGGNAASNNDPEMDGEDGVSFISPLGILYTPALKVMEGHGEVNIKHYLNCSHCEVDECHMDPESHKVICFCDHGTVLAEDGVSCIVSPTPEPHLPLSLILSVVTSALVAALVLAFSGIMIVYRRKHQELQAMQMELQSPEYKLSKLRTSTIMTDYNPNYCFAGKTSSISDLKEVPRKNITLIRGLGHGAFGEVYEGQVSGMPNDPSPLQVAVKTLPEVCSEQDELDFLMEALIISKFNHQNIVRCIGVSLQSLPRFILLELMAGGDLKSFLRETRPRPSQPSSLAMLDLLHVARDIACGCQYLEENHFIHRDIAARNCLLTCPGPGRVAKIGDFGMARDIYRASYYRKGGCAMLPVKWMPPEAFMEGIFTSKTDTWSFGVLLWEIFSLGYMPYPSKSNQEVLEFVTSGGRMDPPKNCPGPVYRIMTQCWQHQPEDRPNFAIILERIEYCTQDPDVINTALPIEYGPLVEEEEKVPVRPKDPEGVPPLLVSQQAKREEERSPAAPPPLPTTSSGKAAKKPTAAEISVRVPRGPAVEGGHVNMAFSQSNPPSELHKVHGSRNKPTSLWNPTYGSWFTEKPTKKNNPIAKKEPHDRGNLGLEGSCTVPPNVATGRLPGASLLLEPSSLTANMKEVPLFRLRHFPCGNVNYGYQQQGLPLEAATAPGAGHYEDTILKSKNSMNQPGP
Chain of c-MET (P08581 25-1390): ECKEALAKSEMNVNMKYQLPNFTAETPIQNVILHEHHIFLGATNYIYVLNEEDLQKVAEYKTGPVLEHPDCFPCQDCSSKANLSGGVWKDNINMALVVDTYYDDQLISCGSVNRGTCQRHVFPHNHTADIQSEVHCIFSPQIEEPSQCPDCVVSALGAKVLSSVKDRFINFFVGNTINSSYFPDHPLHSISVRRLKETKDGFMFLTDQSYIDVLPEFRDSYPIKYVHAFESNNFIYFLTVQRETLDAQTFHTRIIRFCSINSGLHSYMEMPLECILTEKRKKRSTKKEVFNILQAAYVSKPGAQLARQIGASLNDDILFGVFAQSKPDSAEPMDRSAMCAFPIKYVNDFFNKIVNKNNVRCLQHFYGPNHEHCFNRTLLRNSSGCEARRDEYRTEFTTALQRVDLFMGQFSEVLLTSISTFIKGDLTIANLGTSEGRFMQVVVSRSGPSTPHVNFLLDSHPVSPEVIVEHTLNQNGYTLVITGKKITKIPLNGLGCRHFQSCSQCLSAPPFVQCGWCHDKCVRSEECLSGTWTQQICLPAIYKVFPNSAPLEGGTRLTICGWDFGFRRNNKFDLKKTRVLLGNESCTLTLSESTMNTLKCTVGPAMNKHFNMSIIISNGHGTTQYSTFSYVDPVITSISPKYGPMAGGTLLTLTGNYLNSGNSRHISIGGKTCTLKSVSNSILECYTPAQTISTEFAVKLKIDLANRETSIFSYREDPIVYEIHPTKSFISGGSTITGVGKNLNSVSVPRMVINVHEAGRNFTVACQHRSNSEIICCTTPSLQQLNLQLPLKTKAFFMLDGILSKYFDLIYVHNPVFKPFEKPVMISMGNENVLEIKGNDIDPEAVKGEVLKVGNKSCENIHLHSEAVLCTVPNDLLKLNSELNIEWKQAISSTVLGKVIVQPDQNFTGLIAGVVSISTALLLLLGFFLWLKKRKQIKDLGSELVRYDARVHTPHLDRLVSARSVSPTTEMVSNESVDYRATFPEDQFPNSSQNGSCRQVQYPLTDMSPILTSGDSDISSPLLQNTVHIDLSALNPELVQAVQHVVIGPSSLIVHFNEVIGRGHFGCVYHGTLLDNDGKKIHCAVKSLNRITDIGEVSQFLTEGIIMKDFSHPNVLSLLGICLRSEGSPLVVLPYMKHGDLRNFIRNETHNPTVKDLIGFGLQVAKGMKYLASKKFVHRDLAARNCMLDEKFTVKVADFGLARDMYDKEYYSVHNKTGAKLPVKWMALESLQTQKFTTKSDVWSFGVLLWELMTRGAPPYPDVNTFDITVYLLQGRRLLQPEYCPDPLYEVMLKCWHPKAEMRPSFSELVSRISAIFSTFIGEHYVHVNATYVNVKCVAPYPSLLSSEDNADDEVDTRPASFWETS

Consider `C[C@@H](Oc1cc(-c2cnn(C3CCNCC3)c2)cnc1NCc1ccc(O)cc1)c1c(Cl)ccc(F)c1Cl` [Compound C, (R)-4-(((3-(1-(2,6-Dichloro-3-fluorophenyl)ethoxy)-5-(1-(piperidin-4-yl)-1H-pyrazol-4-yl)pyridin-2-yl)amino)methyl)phenol], for which the half-inhibitory concentration (IC50) worked out at 4.03 ± 0.04 µM in data set [1], 5.94 ± 1.09 µM in data set [2], 9.96 ± 2.69 µM in data set [3] and 7.23 ± 0.28 µM in data set [4].
In the case of `C[C@@H](Oc1cc(-c2cnn(C3CCNCC3)c2)cnc1N)c1c(Cl)ccc(F)c1Cl` [Crizotinib, reference compound], the values for the IC50 in [1], in [2] and in data set [3] were 6.32 ± 0.39 µM, 6.08 ± 1.51 µM and 3.18 ± 0.26 µM, respectively.
On to `C[C@@H](Oc1cc(-c2cnn(C3CCNCC3)c2)cnc1NC(=O)OCc1ccc(B(O)O)cc1)c1c(Cl)ccc(F)c1Cl` [Prodrug A, (R)-(4-((((3-(1-(2,6-Dichloro-3-fluorophenyl)ethoxy)-5-(1-(piperidin-4-yl)-1H-pyrazol-4-yl)pyridin-2-yl)carbamoyl)oxy)methyl)phenyl)boronic acid], for which the “Time to activation on incubation with H2O2” value in [5] (incubation with H2O2) is recorded as not above 1 h. The “Release of free crizotinib” value is ~ 50% in [5] (after 10 min) and ~ 75% in data set [5] (after 1 h). The half-maximal inhibitory concentration (IC50) in data set [1] was 16.8 ± 1.38 µM; in data set [2], 14 ± 3.92 µM; in [3], 9.73 ± 2.63 µM; in [4] it was 23.1 ± 0.47 µM; at ALK, 472 nM; against c-MET, 55 nM. The “Ratio of IC50 ±H2O2, RUMH” value in [2] came out at 1.57. Also, the “Ratio of IC50 ±H2O2, H1993” value in data set [3] stood at 1.22. The “Ratio of IC50 ±H2O2, H2228” value in data set [4] came to 1.62. At ALK, the “Prodrug factor ALK = IC50 (prodrug)/IC50 (crizotinib)” value was determined as 22. Besides, the “Prodrug factor c-MET = IC50 (prodrug)/IC50 (crizotinib)” value on c-MET is listed as 11.
As for `C[C@@H](Oc1cc(-c2cnn(C3CCNCC3)c2)cnc1NCc1ccc(B(O)O)cc1)c1c(Cl)ccc(F)c1Cl` [Prodrug B, (R)-(4-(((3-(1-(2,6-Dichloro-3-fluorophenyl)ethoxy)-5-(1-(piperidin-4-yl)-1H-pyrazol-4-yl)pyridin-2-yl)amino)methyl)phenyl)boronic acid], the “Product of activation with H2O2” value in data set [5] was “formation of a hydrolyzed but stable phenol derivative, compound C”; in data set [5] (listed as prodrug B) it was “formation of compound C rather than the release of crizotinib”. In addition, the IC50 stood at 8.99 ± 0.36 µM in data set [1]; 5.05 ± 0.44 µM in [2]; 10.2 ± 1.68 µM in [3]; 8.3 ± 0.42 µM in data set [4]; 333 nM against ALK; 684 nM against c-MET. Further, in [2], the “Ratio of IC50 ±H2O2, RUMH” value is given as 0.91. Besides, the “Ratio of IC50 ±H2O2, H1993” value in [3] is recorded as 0.87. The “Ratio of IC50 ±H2O2, H2228” value in [4] is on record as 0.92. For the same compound, the Prodrug still intact in [6] is 30–40%. In addition, on ALK, the “Prodrug factor ALK = IC50 (prodrug)/IC50 (crizotinib)” value came out at 16. Moreover, the “Prodrug factor c-MET = IC50 (prodrug)/IC50 (crizotinib)” value on c-MET was determined as 137.
In the case of `CS(=O)(=O)CCNCc1ccc(-c2ccc3ncnc(Nc4ccc(OCc5cccc(F)c5)c(Cl)c4)c3c2)o1` [lapatinib], the “GI absorption (predicted)” value in data set [7] is “low”.
